Reference: patent EP0254593B1, “Preparation and uses of interferon-gamma” (KABUSHIKI KAISHA HAYASHIBARA SEIBUTSU KAGAKU KENKYUJO, priority 1986, dated 1988)
Where a name gives a salt, the structure may show the parent alone.

Key:
HEp-2 cell = experiment: Potentialization of cytostatic activity of chemotherapeutics by HuIFN-gamma in vitro; type: cell-based, human; conditions: 2880 min
Description: (§1) An aliquot of RPMI 1640 medium supplemented with 15 v/v % fetal calf serum was added with an HuIFN-gamma prepared by the method in Example B-1(3) to a final concentration of 5, 50 or 500 units/ml, and the mixture was inoculated with a malignant human tumor cell to 5×10^5 cell/ml. The resultant was incubated in 5% CO2 incubator at 37°C for three days. As control, the same amount of an HuIFN-gamma preinactivated by 30-minute incubation at 100°C was added to a fresh preparation of the same culture medium, and the mixture was treated similarly as above. After culture, the viable cell was stained with neutral red in accordance with the method as described in Applied Microbiology, Vol.22, No.4, pp.671-677 (1971). Thereafter, the neutral red was eluted with acidified ethanol, and the number of viable cell was determined with the absorbance of the eluate at 540 nm.
(§2) Cytostatic rate (%) was determined with the following equation: Cytostatic rate (%) = ( 1 -(A)/(B)) × 100 [formula] wherein A designates the number of viable cell in the test system, and B, that in the control.
(§3) One ml aliquots of a nutrient culture medium prepared in accordance with the method in Experiment 2-2(1) was inoculated with 10^6 cells of a human malignant tumor cell, and the mixture was cultured for one day. The resultant culture was added with 50 units of an HuIFN-gamma prepared by the method in Example B-1(3) and/or 0.1 ml of saline containing a chemotherapeutic, and cultured at 37°C for two days. As control, a saline free of HuIFN-gamma and chemotherapeutic was used. After the culture, the cytostatic rate (%) was determined in accordance with the method in Experiment 2-2(1). The concentration of the chemotherapeutics were as follows: nimustine hydrochloride (ACNU), 1.0×10^-6 g/ml; fluorouracil (5-FU), 1.5×10^-8 g/ml; doxorubicin (ADM), 1.0×10^-10 g/ml; mitomycin C (MMC), 2.5×10^-9 g/ml; and vincristine sulfate (VCR), 1.5×10^-10 g/ml.

HLE = experiment: as above; type: cell-based, human; conditions: 2880 min
Description: as §1, §2, §3

HeLa = experiment: as above; type: cell-based, human; conditions: 2880 min
Description: as §1, §2, §3

PC-9 = experiment: as above; type: cell-based, human; conditions: 2880 min
Description: as §1, §2, §3

[1] = tested on: human breast cancer tissue; experiment: Cytostatic activity on malignant tumors in vivo (tumor weight); parameters: species or system BALB/c nude mice; conditions: injected once every day for 20 days; dose/kg/day: HuIFN-gamma 50 units, HuIFN-alpha 500 units, TNF 100 units, MMC 1 mg; control 10.8 g
Description: BALB/c nude mice were implanted at their dorsal area with a segment of human breast cancer tissue. From the time when the tumors grew to about 200 mm^3, the nude mice were injected once every day with one or more HuIFN-gamma prepared by the method in Example B-1(3), a lymphokine derived from human lymphoblastoid cell, and/or a chemotherapeutic in saline solution over a period of 20 days.
Thereafter, the nude mice were sacrificed, and the tumors were weighed.
As control, saline was injected similarly as above.

[2] = chemotherapeutic with addition (+) of 50 units HuIFN-gamma, two days, same chemotherapeutic concentrations
[3] = single agent, two days: HuIFN-gamma 50 units, ACNU 1.0×10^-6, 5-FU 1.5×10^-8, ADM 1.0×10^-10, MMC 2.5×10^-9, VCR 1.5×10^-10 g/ml

Structure (SMILES)	Cytostatic rate (%) (HEp-2 cell; [2])	Cytostatic rate (%) (HEp-2 cell; [3])	Cytostatic rate (%) (HLE; [2])	Cytostatic rate (%) (HLE; [3])	Cytostatic rate (%) (HeLa; [2])	Cytostatic rate (%) (HeLa; [3])	Cytostatic rate (%) (PC-9; [2])	Cytostatic rate (%) (PC-9; [3])	Tumor [1] [g]
Cc1ncc(CNC(=O)N(CCCl)N=O)c(N)n1 [ACNU, nimustine hydrochloride]	54	4	63	5	72	5	65	2	
COc1cccc2c1C(=O)c1c(O)c3c(c(O)c1C2=O)C[C@@](O)(C(=O)CO)C[C@@H]3O[C@H]1C[C@H](N)[C@H](O)[C@H](C)O1 [ADM, doxorubicin]	59	13	62	7	64	17	72	6	
O=c1[nH]cc(F)c(=O)[nH]1 [Example 5-FU, fluorouracil]	67	8	71	8	70	12	68	10	
CO[C@@]12[C@H](COC(N)=O)C3=C(C(=O)C(C)=C(N)C3=O)N1C[C@@H]1N[C@@H]12 [MMC, mitomycin C]	61	10	65	12	62	7	64	5	5.1 ± 0.4
CC[C@]1(O)C[C@H]2CN(CCc3c([nH]c4ccccc34)[C@@](C(=O)OC)(c3cc4c(cc3OC)N(C=O)[C@H]3[C@@](O)(C(=O)OC)[C@H](OC(C)=O)[C@]5(CC)C=CCN6CC[C@]43[C@@H]65)C2)C1 [VCR, vincristine sulfate]	58	5	58	10	65	10	66	8	
